Changes are numbered by the printed parent chain.
Assays:
[1] = target: T1, α-Gal A mutant form Q250K (Homo sapiens, UniProt P06280, Q250K); experiment: α-Gal A activity in lysates of transfected HEK-293 cells, Q250K; assay type: cell-based
T1 construct: expressed in transfected cells; host or cells: HEK-293
T1 sequence (P06280 32-429 Q250K): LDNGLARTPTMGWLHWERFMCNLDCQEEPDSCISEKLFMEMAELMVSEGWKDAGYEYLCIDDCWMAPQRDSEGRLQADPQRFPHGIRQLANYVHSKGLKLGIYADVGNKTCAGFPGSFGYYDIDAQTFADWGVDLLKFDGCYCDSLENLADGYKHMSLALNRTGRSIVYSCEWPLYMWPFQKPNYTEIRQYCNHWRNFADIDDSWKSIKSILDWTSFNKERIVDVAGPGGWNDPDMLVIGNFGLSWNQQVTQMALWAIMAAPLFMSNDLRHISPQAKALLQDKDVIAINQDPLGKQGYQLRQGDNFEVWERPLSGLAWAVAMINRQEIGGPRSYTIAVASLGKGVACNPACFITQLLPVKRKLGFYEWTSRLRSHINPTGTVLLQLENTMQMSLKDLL
Experimental: (§1) Baseline and 10 μM migalastat α-Gal A activity: Differences in the α-Gal A activity between lysates incubated in the absence and presence of 10 μM migalastat were determined using a one-tailed, Mann Whitney U test; an increase at 10 μM migalastat with a p<0.05 was considered significant.
(§2) 10 μM migalastat α-Gal A activity (% WT)=(α-Gal A activity in mutant transfected cell lysates incubated with 10 μM migalastat÷α-Gal A activity in wild-type transfected cell lysates without migalastat)*100.
(§3) Absolute increase (% WT)=is the 10 μM migalastat α-Gal A activity (% WT) minus the baseline α-Gal A activity (% WT).
(§4) Relative increase is the 10 μM migalastat α-Gal A activity in mutant transfected cell lysates÷baseline α-Gal A activity in mutant transfected cell lysates incubated without migalastat.

[2] = target: T2, α-Gal A mutant form V339A (Homo sapiens, UniProt P06280, V339A); experiment: α-Gal A activity in lysates of transfected HEK-293 cells, V339A; assay type: cell-based
T2 construct: expressed in transfected cells; host or cells: HEK-293
T2 sequence (P06280 32-429 V339A): T1 sequence (P06280 32-429 Q250K) with K219Q, V308A
Experimental: as §1, §2, §3, §4

[3] = tested on: mutant form of α-Gal A expressed in HEK-293 cells; experiment: HEK assay amenability criteria (relative increase ≥1.20-fold and absolute increase ≥3.0% wild-type)
Experimental: The α-Gal A activity was measured in lysates prepared from HEK-293 cells transiently transfected with the indicated mutant form of α-Gal A and incubated in the absence or presence of 10 μM migalastat for 5 days. The α-Gal A activity is expressed as the nmoles of free 4-MU released per milligram of protein per hour (nmol/mg/hr). Baseline α-Gal A activity and α-Gal A activity after incubation with 10 μM migalastat, were additionally expressed as a percentage of baseline wild-type α-Gal A activity (% WT). The wild-type α-Gal A activity that was used to calculate these percentages was the average activity measured in lysates from wild-type transfected cells, incubated in the absence of migalastat, measured in parallel.

[4] = target: T3, α-Gal A mutant form P323T (Homo sapiens, UniProt P06280, P323T); experiment: α-Gal A activity in lysates of transfected HEK-293 cells, P323T; assay type: cell-based
T3 construct: expressed in transfected cells; host or cells: HEK-293
T3 sequence (P06280 32-429 P323T): T1 sequence (P06280 32-429 Q250K) with K219Q, P292T
Experimental: as §1, §2, §3, §4

α-Gal A mutant form V22G = target: T4, α-Gal A mutant form V22G (Homo sapiens, UniProt P06280); experiment: α-Gal A activity in lysates of transfected HEK-293 cells, V22G; assay type: cell-based
T4 construct: expressed in transfected cells; host or cells: HEK-293
T4 sequence (P06280 32-429): T1 sequence (P06280 32-429 Q250K) with K219Q
Experimental: as §1, §2, §3, §4

[5] = target: T5, α-Gal A mutant form I239M (Homo sapiens, UniProt P06280, I239M); experiment: α-Gal A activity in lysates of transfected HEK-293 cells, I239M; assay type: cell-based
T5 construct: expressed in transfected cells; host or cells: HEK-293
T5 sequence (P06280 32-429 I239M): T1 sequence (P06280 32-429 Q250K) with I208M, K219Q
Experimental: as §1, §2, §3, §4

[6] = 10 μM migalastat minus baseline
[7] = 10 μM migalastat ÷ baseline activity
[8] = HEK-293 lysates, 10 μM migalastat, 5 days, mean ± SEM

Absolute increase (% WT) [1, 6]: 25.5 % WT | Relative increase [1, 7]: 2.58 | 10 nM migalastat α-Gal A activity ([1]; HEK-293 lysates, 10 nM migalastat as printed, 5 days, mean ± SEM): 11325 ± 1111 nmol/mg/h | 10 μM migalastat α-Gal A activity (% WT) [1, 8]: 41.6 ± 3.1 % WT | Absolute increase (% WT) [2, 6]: 16.8 % WT | Relative increase [2, 7]: 1.33 | 10 μM migalastat α-Gal A activity [2, 8]: 25174 ± 2895 nmol/mg/h | 10 μM migalastat α-Gal A activity (% WT) [2, 8]: 65.6 ± 4.2 % WT | Absolute increase (% WT) [4, 6]: 12.3 % WT | Relative increase [4, 7]: 1.21 | 10 μM migalastat α-Gal A activity [4, 8]: 29631 ± 1144 nmol/mg/h | 10 μM migalastat α-Gal A activity (% WT) [4, 8]: 71.3 ± 4.1 % WT | Absolute increase (% WT) (α-Gal A mutant form V22G; [6]): 9.0 % WT | Relative increase (α-Gal A mutant form V22G; [7]): 1.53 | 10 μM migalastat α-Gal A activity (α-Gal A mutant form V22G; [8]): 7150 ± 700 nmol/mg/h | 10 μM migalastat α-Gal A activity (% WT) (α-Gal A mutant form V22G; [8]): 24.6 ± 2.8 % WT | Absolute increase (% WT) [5, 6]: 55.5 % WT | Relative increase [5, 7]: 5.12 | 10 μM migalastat α-Gal A activity [5, 8]: 24827 ± 3056 nmol/mg/h | 10 μM migalastat α-Gal A activity (% WT) [5, 8]: 69.3 ± 6.9 % WT
Compound: OC[C@H]1NC[C@H](O)[C@@H](O)[C@H]1O [migalastat, (2R,3S,4R,5S)-2-(hydroxymethyl) piperdine-3,4,5-triol]
in vitro response to incubation with migalastat (amenability) ([3]; Table 2, mutations D33H, G35A, Y88S, T194A, W204G, Y216S, Q250K, and R392T): met amenability criteria | in vitro response to incubation with migalastat (amenability) ([3]; Table 3, mutations printed as D33H, G35A, Y88S, T194A, W204G, Y216S, Q250K, and R392T): met amenability criteria | in vitro response to incubation with migalastat (amenability) ([3]; Table 4, mutations V22G, N34H, G80V, Q107R, Y152D, A156S, L189F, W204L, S238G, 1239M, A257V, P259Q, N320H, P323T, E338V, P380L, and T412P): met amenability criteria
